The record followed here is US12421254B2, “KRAS modulators and uses thereof” (Quanta Therapeutics, Inc., priority 2023, dated 2025).

Each structure is given as a SMILES string.

In assay [1] the target is GST-tagged KRAS-G12D (2-169) (Homo sapiens, UniProt P01116, G12D). The assay is described as follows: Nucleotide exchange assay (NEA), SOS-mediated, HTRF, KRAS G12D. The conditions noted are these: Table 4; IC50 extracted at 30 min; 20 nM SOScat; read-out: NEA G12D IC50. In kind it is biochemical. A digest of the protocol:
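SOS1cat-driven loading of fluorescent GTP-DY-647P1 (150 nM) onto GST-KRAS-G12D (2-169, 0.25 nM) read by time-resolved FRET; SOScat 20 nM, compound preincubated with KRAS 1 h at RT. Signal blanked to no-SOS reactions, normalized to DMSO; IC50 fitted from the 30-min read.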

Assay [2] has as its target GST-tagged KRAS-G12V (2-169) (Homo sapiens, UniProt P01116, G12V). The assay is described as follows: Nucleotide exchange assay (NEA), SOS-mediated, HTRF, KRAS G12V. Format: biochemical. The note with it: Table 4; IC50 extracted at 90 min; 80 nM SOS. A digest of the protocol:
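Exchange onto fluorescent GTP-DY-647P1 (150 nM final) catalysed by 80 nM SOS1cat was followed by Tb-anti-GST HTRF at RT for up to 90 min, after 1 h compound pre-incubation with 0.25 nM GST-tagged KRAS-G12V (2-169), pH 7.3. DMSO = 0%, no-SOS blank = 100%; 4-parameter IC50 taken at 90 min.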

The subject of assay [3] is phospho-ERK in GP2D (KRAS-G12D) cells. As to the kind of experiment: pERK In Cell Western (ICW) assay (Method B), GP2D. In kind it is cell-based. A digest of the protocol: (§1)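 Per well, infrared pERK immunofluorescence was divided by DRAQ5 nuclear signal following 3 h treatment with a 9-point, ½-log compound series; seeding was 5,000 (AGS) or 10,000 (GP2D, SW620) cells per well. Percent-of-blank data were fitted to a four-parameter model for IC50.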

The test system of assay [4] is phospho-ERK in SW620 (KRAS-G12V) cells. The assay is described as follows: pERK In Cell Western (ICW) assay (Method B), SW620. In kind it is cell-based. The gist of the method:
as §1

[5] abbreviates: Homo sapiens, SW-620, 3 h, Table 4.

Sequence of GST-tagged KRAS-G12V (2-169) (P01116 2-169 isoform P01116-2 G12V): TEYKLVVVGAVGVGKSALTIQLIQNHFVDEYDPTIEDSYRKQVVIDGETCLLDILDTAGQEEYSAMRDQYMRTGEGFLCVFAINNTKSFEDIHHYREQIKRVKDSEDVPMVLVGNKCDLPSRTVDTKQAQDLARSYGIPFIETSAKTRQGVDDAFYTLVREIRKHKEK
Sequence of GST-tagged KRAS-G12D (2-169) (P01116 2-169 isoform P01116-2 G12D): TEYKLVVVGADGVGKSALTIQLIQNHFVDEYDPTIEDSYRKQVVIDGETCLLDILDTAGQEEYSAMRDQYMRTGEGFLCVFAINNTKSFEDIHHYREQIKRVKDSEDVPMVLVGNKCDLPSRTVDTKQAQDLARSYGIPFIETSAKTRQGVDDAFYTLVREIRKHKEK

On to `CC(CO)N(c1nc(OC[C@@]23CCCN2C[C@H](F)C3)nc(N2CC3(C2)SCc2sc(N)c(C#N)c23)n1)C1(C#N)CC1` (stereo partly drawn) [Compound 262, 2-amino-1′-[4-[(1-cyanocyclopropyl)-(2-hydroxy-1-methyl-ethyl)amino]-6-[[(2R,8S)-2-fluoro-1,2,3,5,6,7-hexahydropyrrolizin-8-yl]methoxy]-1,3,5-triazin-2-yl]spiro[6H-thieno[3,4-b]thiophene-4,3′-azetidine]-3-carbonitrile], for which the IC50 in assay [1] is < 0.01 µM; in assay [2] it was < 0.01 µM; in assay [3] (GP2d, 3 h, Table 4) it was 0.01 to 0.1 µM; in assay [4] (setting [5]) it was 0.01 to 0.1 µM.

Regarding `CC(c1nccnc1N)N(C)c1nc(OC[C@@]23CCCN2C[C@H](F)C3)nc(N2CC3(CCc4sc(N)c(C#N)c43)C2)n1` (single isomer, unassigned) [Compound 116A, 2-amino-1′-[4-[[(1*)-1-(3-aminopyrazin-2-yl)ethyl]-methyl-amino]-6-[[(2R,8S)-2-fluoro-1,2,3,5,6,7-hexahydropyrrolizin-8-yl]methoxy]-1,3,5-triazin-2-yl]spiro[5,6-dihydrocyclopenta[b]thiophene-4,3′-azetidine]-3-carbonitrile], the IC50 is < 0.01 µM in assay [1]; < 0.01 µM in assay [2]; 0.01 to 0.1 µM in assay [3] (GP2d, 3 h, Table 4); 0.01 to 0.1 µM in assay [4] (setting [5]).

Take `N#Cc1c(N)sc2c1C1(CC2)CN(c2nc(OC[C@@]34CCCN3C[C@H](F)C4)nc(N3CCOCC(C#N)C3)n2)C1` (single isomer, unassigned) [Compound 91B, (6*)-4-[4-(2-amino-3-cyano-spiro[5,6-dihydrocyclopenta[b]thiophene-4,3′-azetidine]-1′-yl)-6-[[(2R,8S)-2-fluoro-1,2,3,5,6,7-hexahydropyrrolizin-8-yl]methoxy]-1,3,5-triazin-2-yl]-1,4-oxazepane-6-carbonitrile]: the IC50 was < 0.01 µM in assay [1]; < 0.01 µM in assay [2]; 0.1 to 1 µM in assay [3] (Table 4, 3 hours); 0.01 to 0.1 µM in assay [4] (Table 4, 3 hours).

For the compound `N#Cc1c(N)sc2c1C1(CC2)CN(c2nc(OC[C@@]34CCCN3C[C@H](F)C4)nc(N3CCCCC(O)C3)n2)C1` (stereo partly drawn) [Compound 50, 2-amino-1′-[4-(3-hydroxyazepan-1-yl)-6-[[(2R,8S)-2-fluoro-1,2,3,5,6,7-hexahydropyrrolizin-8-yl]methoxy]-1,3,5-triazin-2-yl]spiro[5,6-dihydrocyclopenta[b]thiophene-4,3′-azetidine]-3-carbonitrile], the IC50 in assay [1] lay in the range of 0.01 to 0.1 µM; in assay [2] it was 0.01 to 0.1 µM; in assay [3] (GP2d, 3 h, Table 4) it was 0.1 to 1 µM; in assay [4] (setting [5]) it was 0.1 to 1 µM.

As for `CC(c1ccns1)N(C)c1nc(OC[C@@]23CCCN2C[C@H](F)C3)nc(N2CC3(CCc4sc(N)c(C#N)c43)C2)n1` (stereo partly drawn) [Compound 158, 2-amino-1′-[4-[[(2R,8S)-2-fluoro-1,2,3,5,6,7-hexahydropyrrolizin-8-yl]methoxy]-6-[1-isothiazol-5-ylethyl(methyl)amino]-1,3,5-triazin-2-yl]spiro[5,6-dihydrocyclopenta[b]thiophene-4,3′-azetidine]-3-carbonitrile], the IC50 in assay [1] is 0.1 to 1 µM; in assay [2] it was < 0.01 µM; in assay [3] (GP2d, 3 h, Table 4), 1 to 20 µM; in assay [4] (setting [5]), 0.1 to 1 µM.

For the compound `CCN(c1nc(OC[C@@]23CCCN2C[C@H](F)C3)nc(N2CC3(C2)SCc2sc(N)c(C#N)c23)n1)C(C)c1nccnc1N` (single isomer, unassigned) [Compound 168A, 2-amino-1′-[4-[[(1*)-1-(3-aminopyrazin-2-yl)ethyl]-ethyl-amino]-6-[[(2R,8S)-2-fluoro-1,2,3,5,6,7-hexahydropyrrolizin-8-yl]methoxy]-1,3,5-triazin-2-yl]spiro[6H-thieno[3,4-b]thiophene-4,3′-azetidine]-3-carbonitrile], the IC50 in assay [1] was < 0.01 µM; in assay [2], < 0.01 µM; in assay [3] (Table 4, 3 hours), < 0.01 µM; in assay [4] (setting [5]), < 0.01 µM.
